Source: ChEMBL document CHEMBL1146464, “Two new analogues of the cytotoxic substance BE-52211 from Streptomyces sp” (2004)

Assay: Inhibition of first mitotic cell division in Asterina pectinifera fertilized eggs assessed as minimum effective concentration
Type: functional
Conditions: Patiria pectinifera, Egg; read-out: MEC

SMILES	minimal effective concentration
C/C=C\c1cc(C)ccc1/C(C)=C\C(C)=C\CCC[C@H](O)CNC(C)=O	2.5 µg/mL
C=CCc1cc(C)ccc1/C(C)=C\C(C)=C\CCC[C@H](O)CNC(C)=O	2.5 µg/mL
